Source: patent publication US20180093308A1, “METHANOGENESIS CONTROL DURING ENVIRONMENTAL APPLICATIONS USING ANTIMETHANOGENIC REAGENTS” (Innovative Environmental Technologies, Inc, priority 2016, published 2018)

Test system: Archaea
Experiment: Laboratory Study 4: methane concentration in control and test samples with AMRs
Format: cell-based
Procedure: Use of diallyl sulfide, which may be considered a synthetic garlic oil (GOS), was evaluated for its ability to control Archaea compared to the effects of other potential AMRs such as natural/pressed Garlic Oil (GO) and dehydrated Garlic Powder (GP). Control samples with and without contaminants were captured along with test samples that included contaminants and different concentrations (250 ppm and 500 ppm) of different AMRs (GO, GOS and GP). The concentration of methane in each of the samples was measured at 0, 9, 16 and 23 days.

C=CCSCC=C [GOS, diallyl sulfide]
control response in terms of methane production (250 ppm and 500 ppm, 23 days incubation): best control response
length and magnitude of antimethanogenic responses (500 ppm lasting longer than 250 ppm): concentration dependent
